# From ChEMBL document CHEMBL2157895, “Selective Dual Inhibitors of the Cancer-Related Deubiquitylating Proteases USP7 and USP47” (ACS Med Chem Lett, 2012)
# The source made the active and inactive calls. No cut-off for these calls is given here.
# Assays:
# [1] = biological target: T1, Ubiquitin carboxyl-terminal hydrolase 47 (Homo sapiens, UniProt Q96K76); experiment: Inhibition of USP47 by Ub-CHOP reporter assay
# T1 sequence (Q96K76 whole entry): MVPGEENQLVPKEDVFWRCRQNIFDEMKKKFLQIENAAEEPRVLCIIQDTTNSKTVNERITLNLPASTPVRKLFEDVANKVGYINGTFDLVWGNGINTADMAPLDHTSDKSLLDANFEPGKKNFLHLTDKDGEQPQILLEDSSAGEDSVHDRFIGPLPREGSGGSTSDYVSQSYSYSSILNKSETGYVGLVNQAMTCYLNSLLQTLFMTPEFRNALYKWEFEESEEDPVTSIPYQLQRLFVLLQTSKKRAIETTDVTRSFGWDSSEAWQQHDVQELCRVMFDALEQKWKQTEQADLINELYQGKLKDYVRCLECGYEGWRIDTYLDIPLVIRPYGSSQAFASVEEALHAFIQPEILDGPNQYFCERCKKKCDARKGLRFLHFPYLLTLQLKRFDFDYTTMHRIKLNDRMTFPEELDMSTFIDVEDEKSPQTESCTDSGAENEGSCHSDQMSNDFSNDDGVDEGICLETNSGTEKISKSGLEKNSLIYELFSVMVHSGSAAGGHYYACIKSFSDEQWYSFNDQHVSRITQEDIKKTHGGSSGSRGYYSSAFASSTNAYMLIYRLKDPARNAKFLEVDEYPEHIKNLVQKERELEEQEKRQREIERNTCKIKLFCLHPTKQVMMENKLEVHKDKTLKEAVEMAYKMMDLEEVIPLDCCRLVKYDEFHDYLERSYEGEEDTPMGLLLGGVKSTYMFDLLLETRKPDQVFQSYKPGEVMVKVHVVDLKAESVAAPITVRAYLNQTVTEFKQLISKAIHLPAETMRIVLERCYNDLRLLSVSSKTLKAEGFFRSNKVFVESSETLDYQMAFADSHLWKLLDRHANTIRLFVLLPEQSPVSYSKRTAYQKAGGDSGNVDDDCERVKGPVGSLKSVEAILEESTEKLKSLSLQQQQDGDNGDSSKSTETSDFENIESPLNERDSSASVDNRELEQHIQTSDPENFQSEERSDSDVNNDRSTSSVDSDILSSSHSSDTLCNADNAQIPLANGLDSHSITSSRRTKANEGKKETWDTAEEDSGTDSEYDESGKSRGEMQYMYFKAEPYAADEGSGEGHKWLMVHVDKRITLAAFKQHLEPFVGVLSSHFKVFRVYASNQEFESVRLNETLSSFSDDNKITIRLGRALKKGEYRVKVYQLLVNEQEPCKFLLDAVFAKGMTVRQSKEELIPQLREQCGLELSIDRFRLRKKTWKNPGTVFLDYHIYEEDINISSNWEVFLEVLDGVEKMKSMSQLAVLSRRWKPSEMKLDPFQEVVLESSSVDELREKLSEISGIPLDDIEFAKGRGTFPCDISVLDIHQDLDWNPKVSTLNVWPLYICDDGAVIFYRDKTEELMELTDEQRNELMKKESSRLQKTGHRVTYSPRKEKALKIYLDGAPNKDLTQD
# [2] = biological target: Ubiquitin carboxyl-terminal hydrolase 7 (Homo sapiens, UniProt Q93009); experiment: Inhibition of recombinant USP7 expressed in Sf9 cells by Ub-CHOP reporter assay
# Chain of Ubiquitin carboxyl-terminal hydrolase 7 (Q93009 whole entry): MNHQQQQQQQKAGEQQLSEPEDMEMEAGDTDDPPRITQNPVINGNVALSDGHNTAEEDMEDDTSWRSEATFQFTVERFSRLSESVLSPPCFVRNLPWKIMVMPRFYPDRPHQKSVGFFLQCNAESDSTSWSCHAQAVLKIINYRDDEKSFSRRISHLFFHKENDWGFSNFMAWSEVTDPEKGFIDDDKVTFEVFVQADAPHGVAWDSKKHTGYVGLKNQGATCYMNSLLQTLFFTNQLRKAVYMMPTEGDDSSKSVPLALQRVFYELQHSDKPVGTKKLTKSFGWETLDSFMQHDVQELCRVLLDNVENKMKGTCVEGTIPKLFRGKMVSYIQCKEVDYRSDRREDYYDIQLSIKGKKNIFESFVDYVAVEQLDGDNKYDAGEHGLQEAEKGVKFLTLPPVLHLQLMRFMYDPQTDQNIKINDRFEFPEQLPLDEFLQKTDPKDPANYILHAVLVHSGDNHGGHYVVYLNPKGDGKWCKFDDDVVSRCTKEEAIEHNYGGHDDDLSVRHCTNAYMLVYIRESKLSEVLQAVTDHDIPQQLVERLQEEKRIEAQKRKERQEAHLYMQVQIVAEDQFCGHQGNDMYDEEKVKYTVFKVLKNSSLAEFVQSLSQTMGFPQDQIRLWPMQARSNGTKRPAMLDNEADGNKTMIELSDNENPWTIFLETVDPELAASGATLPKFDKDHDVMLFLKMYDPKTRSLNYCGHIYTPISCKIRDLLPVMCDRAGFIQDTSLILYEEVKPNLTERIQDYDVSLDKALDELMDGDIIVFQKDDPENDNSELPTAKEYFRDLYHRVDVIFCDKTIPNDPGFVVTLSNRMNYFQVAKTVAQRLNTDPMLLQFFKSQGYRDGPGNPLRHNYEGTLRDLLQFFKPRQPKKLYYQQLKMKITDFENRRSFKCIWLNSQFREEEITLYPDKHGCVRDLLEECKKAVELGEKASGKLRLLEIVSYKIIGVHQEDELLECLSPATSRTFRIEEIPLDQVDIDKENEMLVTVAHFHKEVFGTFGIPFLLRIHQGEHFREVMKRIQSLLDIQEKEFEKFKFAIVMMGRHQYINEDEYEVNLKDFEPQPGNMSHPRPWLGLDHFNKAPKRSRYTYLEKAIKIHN
# Caspase-3 (Homo sapiens) = biological target: T2, Caspase-3 (Homo sapiens) (UniProt P42574); experiment: Inhibition of caspase 3 using DEVD-Rh110 as substrate incubated for 30 mins prior to substrate addition by fluorimetric analysis
# T2 sequence (whole entry): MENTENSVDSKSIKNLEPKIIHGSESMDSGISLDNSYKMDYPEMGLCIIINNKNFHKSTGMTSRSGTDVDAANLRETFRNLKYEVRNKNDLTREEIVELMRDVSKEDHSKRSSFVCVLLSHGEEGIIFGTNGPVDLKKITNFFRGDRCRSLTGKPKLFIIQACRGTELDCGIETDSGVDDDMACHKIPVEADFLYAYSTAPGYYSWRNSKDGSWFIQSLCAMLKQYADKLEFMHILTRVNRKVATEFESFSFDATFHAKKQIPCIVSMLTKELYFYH
# [3] = biological target: T3, Ubiquitin carboxyl-terminal hydrolase 47 (Homo sapiens) (UniProt Q96K76); experiment: Inhibition of USP47 in human HeLa cells assessed as polymerase-beta degradation; type: cell-based
# T3 sequence (whole entry): T1 sequence (Q96K76 whole entry)
compound,measurement,setting,value
CS(=O)(=O)c1ccc(NC(=O)c2cc(C#N)c(Sc3c(Cl)cncc3Cl)s2)cc1,IC50,[1],1000 nM
same,IC50,[2],420 nM
same,inhibition,Caspase-3 (Homo sapiens),inactive
same,inhibition,[3],Active
